Target: Genome polyprotein (Hepatitis C virus genotype 1a (isolate H77), UniProt P27958)
Test: Continuous Spectrophotometric Assay
Settings: pH 6.5; 30 °C
Protocol: Proteolytic cleavage of the ester linkage between the Nva (L-norvaline) and the chromophore (PAP) was monitored for change in absorbance at 370 nm. Initial velocities were determined using linear regression and kinetic constants were obtained by fitting the data to the Michaelis-Menten equation.

Genome polyprotein, sequence (P27958 1027-1657 limits assumed): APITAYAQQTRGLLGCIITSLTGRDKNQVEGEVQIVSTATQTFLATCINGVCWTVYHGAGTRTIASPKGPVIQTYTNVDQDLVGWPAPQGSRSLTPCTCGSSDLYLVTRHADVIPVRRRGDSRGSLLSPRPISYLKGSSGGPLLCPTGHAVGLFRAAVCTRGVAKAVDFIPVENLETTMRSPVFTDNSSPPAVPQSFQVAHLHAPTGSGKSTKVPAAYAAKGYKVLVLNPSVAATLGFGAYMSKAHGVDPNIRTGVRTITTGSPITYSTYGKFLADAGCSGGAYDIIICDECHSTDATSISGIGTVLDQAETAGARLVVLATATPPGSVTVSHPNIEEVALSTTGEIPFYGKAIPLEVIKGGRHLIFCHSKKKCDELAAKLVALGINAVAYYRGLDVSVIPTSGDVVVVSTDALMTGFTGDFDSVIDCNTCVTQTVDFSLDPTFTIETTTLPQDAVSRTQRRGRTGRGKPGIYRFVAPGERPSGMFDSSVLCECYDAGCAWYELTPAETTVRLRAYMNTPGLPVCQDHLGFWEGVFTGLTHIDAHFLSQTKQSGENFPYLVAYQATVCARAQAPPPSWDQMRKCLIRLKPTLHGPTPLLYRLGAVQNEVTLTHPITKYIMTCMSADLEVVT

Row | Compound | Ki
1 | CC[C@H](NC(=O)[C@@H]1[C@@H]2[C@H](CN1C(=O)[C@@H](NC(=O)NC(C)(C)C)C(C)(C)C)C2(C)C)B1O[C@@H]2CC3CC(C3(C)C)[C@]2(C)O1 (stereo partly drawn) [(1R,2S,5S)-3-[(2S)-2-[(tert-butylcarbamoyl)amino]-3,3-dimethylbutanoyl]-6,6-dimethyl-N-[(1R)-1-[(2S,6R)-2,9,9-trimethyl-3,5-dioxa-4-boratricyclo[6.1.1.0^{2,6}]decan-4-yl]propyl]-3-azabicyclo[3.1.0]hexane-2-carboxamide] | 500 nM
2 | CN(C[C@@H](NC(=O)N[C@H](C(=O)N1C[C@H]2[C@@H]([C@H]1C(=O)N[C@@H](CC1CCC1)B1O[C@@H]3CC4CC(C4(C)C)[C@]3(C)O1)C2(C)C)C(C)(C)C)C(C)(C)C)S(C)(=O)=O (stereo partly drawn) [(1R,2S,5S)-N-[(1R)-2-cyclobutyl-1-[(2S,6R)-2,9,9-trimethyl-3,5-dioxa-4-boratricyclo[6.1.1.0^{2,6}]decan-4-yl]ethyl]-3-[(2S)-2-({[(2S)-1-[methane(methyl)sulfonamido]-3,3-dimethylbutan-2-yl]carbamoyl}amino)-3,3-dimethylbutanoyl]-6,6-dimethyl-3-azabicyclo[3.1.0]hexane-2-carboxamide] | 0.5 nM
3 | CC(C)(C)NC(=O)N[C@H](C(=O)N1C[C@H]2[C@@H](C1C(=O)N[C@@H](CC1CCC1)B(O)O)C2(C)C)C(C)(C)C (stereo partly drawn) [(1R,5S)-3-[(2S)-2-[(tert-butylcarbamoyl)amino]-3,3-dimethylbutanoyl]-N-[(1R)-2-cyclobutyl-1-(dihydroxyboranyl)ethyl]-6,6-dimethyl-3-azabicyclo[3.1.0]hexane-2-carboxamide] | 10 nM

Continued by falling Ki, values first:

Row | Ki | Compound
4 | 380 nM | CC[C@H](NC(=O)C1[C@@H]2[C@H](CN1C(=O)[C@@H](NC(=O)NC(C)(C)C)C(C)(C)C)C2(C)C)B1O[C@@H]2CC3CC(C3(C)C)[C@]2(C)O1 (stereo partly drawn) [(1R,5S)-3-[(2S)-2-[(tert-butylcarbamoyl)amino]-3,3-dimethylbutanoyl]-6,6-dimethyl-N-[(1R)-1-[(2S,6R)-2,9,9-trimethyl-3,5-dioxa-4-boratricyclo[6.1.1.0^{2,6}]decan-4-yl]propyl]-3-azabicyclo[3.1.0]hexane-2-carboxamide]
5 | 34 nM | CC[C@H](NC(=O)[C@@H]1[C@@H]2[C@H](CN1C(=O)[C@@H](NC(=O)N[C@H](CN(C)S(C)(=O)=O)C(C)(C)C)C(C)(C)C)C2(C)C)B1O[C@@H]2CC3CC(C3(C)C)[C@]2(C)O1 (stereo partly drawn) [(1R,2S,5S)-3-[(2S)-2-({[(2S)-1-[methane(methyl)sulfonamido]-3,3-dimethylbutan-2-yl]carbamoyl}amino)-3,3-dimethylbutanoyl]-6,6-dimethyl-N-[(1R)-1-[(2S,6R)-2,9,9-trimethyl-3,5-dioxa-4-boratricyclo[6.1.1.0^{2,6}]decan-4-yl]propyl]-3-azabicyclo[3.1.0]hexane-2-carboxamide]
6 | 10 nM | CC(C)(C)NC(=O)N[C@H](C(=O)N1C[C@H]2[C@@H](C1C(=O)N[C@@H](CC1CCC1)B1O[C@@H]3CC4CC(C4(C)C)[C@]3(C)O1)C2(C)C)C(C)(C)C (stereo partly drawn) [(1R,5S)-3-[(2S)-2-[(tert-butylcarbamoyl)amino]-3,3-dimethylbutanoyl]-N-[(1R)-2-cyclobutyl-1-[(2S,6R)-2,9,9-trimethyl-3,5-dioxa-4-boratricyclo[6.1.1.0^{2,6}]decan-4-yl]ethyl]-6,6-dimethyl-3-azabicyclo[3.1.0]hexane-2-carboxamide]

— BindingDB's records for doi:10.1016/j.bmcl.2008.10.124 (Schering-Plough Research Institute, 2009)
